Laboratory results from PMC5607265, “Design, synthesis and structure-activity relationship of 3,6-diaryl-7H-[1,2,4]triazolo[3,4-b][1,3,4]thiadiazines as novel tubulin inhibitors” (Scientific Reports, 2017).
Entries after “also recorded” stand apart in the source; their conditions may differ. Like-named read-outs stand apart in the source and are kept apart here.

Experiments:
[1] = tested on: gastric adenocarcinoma SGC-7901 cells; experiment: MTT antiproliferative assay, SGC-7901; type: cell-based, human; settings: read-out: IC50 SGC-7901
Procedure: (§1) The SGC-7901, A549 and HT-1080 cell lines were purchased from the American Type Culture Collection (ATCC, Manassas, VA, USA). […] Briefly, approximately 3 × 10^4 cells were seeded in a 96-well plate. After 24 h of incubation at 37 °C, cells were exposed to compounds of differing concentrations for 24 h. After treatment, cells were washed with 1X PBS followed by addition of 100 µL of 0.05% MTT reagent to each well, followed by incubation for 4 h at 37 °C. After incubation, the supernatant from each well was carefully removed and the formazan crystals were dissolved in 100 µL of DMSO. The colour density was measured spectrophotometrically at 490 nm using a microplate reader (SpectraMax Plus384, Molecular Devices Corp., USA). The data were calculated and plotted as percent viability compared to control.
as §1

[2] = tested on: lung adenocarcinoma A549 cells; experiment: MTT antiproliferative assay, A549; type: cell-based, human; settings: read-out: IC50 A549
Procedure: as §1, §1

[3] = tested on: fibrosarcoma HT-1080 cells; experiment: MTT antiproliferative assay, HT-1080; type: cell-based, human; settings: read-out: IC50 HT-1080
Procedure: as §1, §1

[4] = tested on: SGC-7901, A549 and HT-1080 cell lines; experiment: MTT antiproliferative assay, span over the three cell lines; type: cell-based, human; settings: for antiproliferative activity in words: SGC-7901, A549 and HT-1080; for IC50: read-out: IC50 range against the three human cancer cell lines
Procedure: as §1, §1

[5] = target: T1, highly purified tubulin from porcine brain (Sus scrofa, UniProt P02554); experiment: Tubulin polymerization assay; type: biochemical; settings: CA-4 0.5-4 µM, 6i 0.1-8.0 µM, paclitaxel 5.0 µM, 37 °C
T1 construct: highly purified tubulin from porcine brain; purchased Cytoskeleton BK011P; host or cells: porcine brain (tissue-purified)
Procedure: This assay uses highly purified tubulin from porcine brain.
The reaction was monitored at 37 °C.
(§2) Tubulin polymerization assay[33] was conducted with reagents as described in the kit manufacturer (Cytoskeleton, Cat.#BK011P) in a 96-well plate. In brief, tubulin was re-suspended in ice-cold G-PEM buffer (80 mM PIPES, 2 mM MgCl2, 0.5 mM EGTA, 1 mM GTP, 20% (v/v) glycerol) and added to wells on a 96-well plate containing the designated concentration of drugs or vehicle. Samples were mixed well, and tubulin assembly was monitored (emission wavelength: 450 ± 20 nm; excitation wavelength: 360 ± 20 nm) at 1 min intervals for 90 min at 37 °C in a SpectraMax 340PC spectrophotometer (Biotek Synergy HT, Winooskin, VT, USA). IC50 values were calculated from data at the 20 min time point using GraphPad Prism software. Experiments were repeated three times.
as §2, with “assay” for “assay[33]”, “450±20” for “450 ± 20”, “360±20” for “360 ± 20”, “timepoint” for “time point”

HCT116 = tested on: HCT116; parameters: method as in Org. Biomol. Chem. 2005, 3, 2657-2660; settings: ref Org. Biomol. Chem. 2005, 3, 2657-2660; cited from earlier work
[6] = Homo sapiens, SGC-7901, MTT assay, 24 h exposure, triplicate
[7] = Homo sapiens, A549, MTT assay, 24 h exposure, triplicate
[8] = Homo sapiens, HT-1080, MTT assay, 24 h exposure, triplicate
[9] = MTT assay, 24 h exposure, triplicate

T1 sequence (P02554 whole entry): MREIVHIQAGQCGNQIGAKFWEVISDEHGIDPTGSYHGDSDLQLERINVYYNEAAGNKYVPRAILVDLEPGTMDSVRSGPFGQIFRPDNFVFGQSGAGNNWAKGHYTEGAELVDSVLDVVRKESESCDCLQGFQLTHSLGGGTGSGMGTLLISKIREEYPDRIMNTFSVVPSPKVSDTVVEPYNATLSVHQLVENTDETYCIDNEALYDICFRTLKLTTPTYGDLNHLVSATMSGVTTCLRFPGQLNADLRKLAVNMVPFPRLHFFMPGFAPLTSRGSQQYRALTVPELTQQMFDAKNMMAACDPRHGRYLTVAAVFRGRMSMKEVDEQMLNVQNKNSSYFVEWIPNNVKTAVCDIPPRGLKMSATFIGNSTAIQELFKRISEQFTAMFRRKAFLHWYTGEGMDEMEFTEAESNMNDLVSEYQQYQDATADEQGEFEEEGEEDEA
T1 sequence (P02550 whole entry partner): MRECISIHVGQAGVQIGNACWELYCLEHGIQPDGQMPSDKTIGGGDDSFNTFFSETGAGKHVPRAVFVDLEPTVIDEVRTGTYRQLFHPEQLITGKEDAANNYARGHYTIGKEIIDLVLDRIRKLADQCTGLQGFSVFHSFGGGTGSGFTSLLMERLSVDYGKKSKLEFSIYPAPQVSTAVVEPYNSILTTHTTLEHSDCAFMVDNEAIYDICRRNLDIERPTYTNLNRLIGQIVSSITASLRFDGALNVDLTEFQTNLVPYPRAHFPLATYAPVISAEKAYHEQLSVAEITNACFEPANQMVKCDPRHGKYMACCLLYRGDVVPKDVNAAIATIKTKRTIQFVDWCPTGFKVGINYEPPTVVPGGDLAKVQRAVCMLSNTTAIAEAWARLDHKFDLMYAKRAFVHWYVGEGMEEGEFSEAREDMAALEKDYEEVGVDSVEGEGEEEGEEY

Compound | IC50 [1, 6] | IC50 [2, 7] | IC50 [3, 8] | antiproliferative activity in words ([4]; MTT assay) | melting point | further results
COc1ccc(C2=Nn3c(nnc3-c3ccc4c(c3)OCO4)SC2)cc1O [Compound 6e, 3-(3,4-Methylenedioxyphenyl)-6-(3-hydroxy-4-methoxyphenyl)-7H-[1,2,4]triazolo[3,4-b][1,3,4]thiadiazine] | 0.037 µM | 0.079 µM | 0.035 µM | nanomolar IC50 values against all tested cells; also recorded: IC50 values at the nanomolar level | 85 to 87 °C | –
COc1ccc(-c2nnc3n2N=C(c2ccc(OC)c(N)c2)CS3)cc1 [Compound 6k, 3-(4-Methoxyphenyl)-6-(3-amino-4-methoxyphenyl)-7H-[1,2,4]triazolo[3,4-b][1,3,4]thiadiazine] | 0.036 µM | 0.038 µM | 0.023 µM | nanomolar IC50 values against all tested cells; also recorded: IC50 values at the nanomolar level | 214 to 215 °C | –
CC(=O)O[C@H]1C(=O)[C@@]2(C)[C@H]([C@H](OC(=O)c3ccccc3)[C@]3(O)C[C@H](OC(=O)[C@H](O)[C@@H](NC(=O)c4ccccc4)c4ccccc4)C(C)=C1C3(C)C)[C@]1(OC(C)=O)CO[C@@H]1C[C@@H]2O [paclitaxel, reference compound] | – | – | – | – | – | effect on tubulin polymerization in words [5]: could distinctly promoted this process
COc1ccc(-c2nnc3n2N=C(c2ccc(C)cc2)CS3)c(OC)c1OC [Compound 4d, 3-(2,3,4-Trimethoxyphenyl)-6-(4-methyphenyl)-7H-[1,2,4]triazolo[3,4-b][1,3,4]thiadiazine] | – | – | – | IC50 values at the nanomolar level | – | IC50 [1, 9]: 0.066 µM; IC50 [2, 9]: 0.073 µM; IC50 [3, 9]: 0.028 µM; IC50 ([4]; range over SGC-7901, A549 and HT-1080, MTT assay): 0.028 to 0.073 µM
COc1ccc(C2=Nn3c(nnc3-c3ccc4c(c3)OCO4)SC2)cc1N [Compound 6c, 3-(3,4-Methylenedioxyphenyl)-6-(3-amino-4-methoxyphenyl)-7H-[1,2,4]triazolo[3,4-b][1,3,4]thiadiazine] | 0.018 µM | 0.026 µM | 0.021 µM | nanomolar IC50 values against all tested cells; also recorded: IC50 values at the nanomolar level | 88 to 90 °C | –
COc1ccc(/C=C/C=C\c2cc(OC)c(OC)c(OC)c2)cc1O [vinylogous CA-4 (Z,E), vinylogous CA-4] | – | – | – | – | – | IC50 (HCT116): 0.163 µM
COc1ccc(C2=Nn3c(nnc3-c3ccc(OC)c(OC)c3)SC2)cc1N [Compound 6g, 3-(3,4-Dimethoxyphenyl)-6-(3-amino-4-methoxyphenyl)-7H-[1,2,4]triazolo[3,4-b][1,3,4]thiadiazine] | 0.023 µM | 0.032 µM | 0.018 µM | IC50 values at the nanomolar level | 213 to 215 °C | antiproliferative activity in words ([4]; MTT assay, listed as 6 g): nanomolar IC50 values against all tested cells
COc1ccc(C2=Nn3c(nnc3-c3ccc(OC)c(OC)c3OC)SC2)cc1N [Compound 4j, 3-(2,3,4-Trimethoxyphenyl)-6-(3-amino-4-methoxyphenyl)-7H-[1,2,4]triazolo[3,4-b][1,3,4]thiadiazine] | – | – | – | only moderate activity | 93 to 94 °C | IC50 ([1]; Homo sapiens, SGC-7901, 24 h): 1.57 µM; IC50 ([2]; Homo sapiens, A549, 24 h): 1.58 µM; IC50 ([3]; Homo sapiens, HT-1080, 24 h): 0.89 µM
COc1ccc(C2=Nn3c(nnc3-c3ccc(OC)c(OC)c3OC)SC2)cc1O [Compound 4l, 3-(2,3,4-Trimethoxyphenyl)-6-(3-hydroxy-4-methoxyphenyl)-7H-[1,2,4]triazolo[3,4-b][1,3,4]thiadiazine] | 16.3 µM | 7.73 µM | 0.63 µM | only moderate activity | 88 to 89 °C | –
COc1ccc(C2=Nn3c(nnc3-c3cc(OC)c(OC)c(OC)c3)SC2)cc1O [Compound 5i, 3-(3,4,5-Trimethoxyphenyl)-6-(3-hydroxy-4-methoxyphenyl)-7H-[1,2,4]triazolo[3,4-b][1,3,4]thiadiazine] | – | – | – | IC50 values at the nanomolar level | 95 to 97 °C | IC50 ([1]; Homo sapiens, SGC-7901, 24 h): 0.026 µM; IC50 ([2]; Homo sapiens, A549, 24 h): 0.071 µM; IC50 ([3]; Homo sapiens, HT-1080, 24 h): 0.047 µM; IC50 ([4]; Homo sapiens): 0.026 to 0.071 µM
